In patent US20190076510A1, “PROTEIN KINASE C INHIBITION TO EXTEND TISSUE PLASMINOGEN ACTIVATOR TREATMENT FOR ISCHEMIC DISEASE” (THE REGENTS OF THE UNIVERSITY OF MICHIGAN, priority 2017, published 2019):

How the values were obtained:
[1] = tested on: photothrombotic MCAO mice; assay: MCAO-induced cerebral vascular permeability to fluorescent-labeled 70 kDa dextran; type: in vivo, mouse; conditions: separate experiments
[2] = tested on: photothrombotic MCAO mice; assay: Hemorrhagic transformation (ICH) after MCAO with late rtPA thrombolysis; type: in vivo, mouse; conditions: rtPA given 5 hours after stroke
From the text: Transgenic mouse lines and commercially available laboratory mouse strains (Jackson Labs) were bred using standard procedures. These strains include wild-type C57BL/6J mice, and C57BL/6J mice with diet-induced obesity. Transgenic mice include mice deficient in tissue type plasminogen activator (tPA^−/−), mice expressing the S490A mutant of occludin, and mice expressing Cre under the vascular endothelium. The numbers of mice used are necessary to maintain the breeding colonies and to obtain statistical significance in the experiments. Mouse pups are weaned at 3 weeks of age. Mice are marked with standard mouse ear tags. […] Both male and female mice are used, but are initially analyzed separately. […]
Using the Tek promoter for control of stop flox expression, however, leads to 85% of bone marrow-derived cells expressing the gene as well as endothelial cells (Genesis. 2010 September; 48(9):563-7)). […] Expression of Tg:S490AOcc^+/+ reduced permeability induced by MCAO, as measured using 70 kDa dextran labeled with Texas Red (dextran). […] Five images surrounding the infarct were taken and mean pixel intensity was determined using Imaris software, averaged for each mouse with n of at least 8 mice. […]
In addition to these studies, the effect of the PKC-β inhibition on hemorrhagic transformation was measured after tPA induction in MCAO mice. […]

[3] = tested on: acute ischemic stroke; conditions: intravenous rtPA within 3-4.5 hours; cited from earlier work
[4] = tested on: vascular permeability in the eye; conditions: in vivo; cited from earlier work

Compound: CN(C)C[C@@H]1CCn2cc(c3ccccc32)C2=C(C(=O)NC2=O)c2cn(c3ccccc23)CCO1 [LY333531]
- reduction in cerebral permeability to dextran (surgical removal of ischemic region and penumbra, dye extraction) [1]: ~30%

Compound: rtPA: recombinant tissue plasminogen activator, thrombolytic
- hemorrhagic transformation from late rtPA treatment (area of hemoglobin in serial brain sections) [2]: clear increase
- patients having absolute benefit [3]: 90 out of 1000

Compound: CN(C)C[C@@H]1CCn2cc(c3ccccc32)C2=C(C(=O)NC2=O)c2cn(c3ccccc23)CCO1 [Ruboxistaurin®]
- vascular permeability and edema in the eye [4]: shown to reduce vascular permeability and edema in the eye
